Values of other authors, collected in patent US20240374689A1 (Longevity Biotech, Inc., priority 2010, published 2024).

Conditions: in humans

With GLP-1 as the substance, how does the plasma half-life read?
Its plasma half-life is 2 min.
